Results taken from article PMC9413491, “A Novel and Cross-Species Active Mammalian INDY (NaCT) Inhibitor Ameliorates Hepatic Steatosis in Mice with Diet-Induced Obesity” (Metabolites, 2022).

Key:
[1] = biological target: T1, mouse Nact (Mus musculus, UniProt Q67BT3); test: [14C] citrate uptake in HEK293 cells recombinantly expressing mouse Nact; assay type: cell-based; settings: HEK293 overexpressing mouse Nact, citrate substrate; read-out: IC50 [14C] citrate uptake, HEK293 (mouse Nact)
T1 construct: expressed in transfected cells; host or cells: HEK293 (DSMZ), stably transfected, G418 selection
T1 sequence (Q67BT3 1-572): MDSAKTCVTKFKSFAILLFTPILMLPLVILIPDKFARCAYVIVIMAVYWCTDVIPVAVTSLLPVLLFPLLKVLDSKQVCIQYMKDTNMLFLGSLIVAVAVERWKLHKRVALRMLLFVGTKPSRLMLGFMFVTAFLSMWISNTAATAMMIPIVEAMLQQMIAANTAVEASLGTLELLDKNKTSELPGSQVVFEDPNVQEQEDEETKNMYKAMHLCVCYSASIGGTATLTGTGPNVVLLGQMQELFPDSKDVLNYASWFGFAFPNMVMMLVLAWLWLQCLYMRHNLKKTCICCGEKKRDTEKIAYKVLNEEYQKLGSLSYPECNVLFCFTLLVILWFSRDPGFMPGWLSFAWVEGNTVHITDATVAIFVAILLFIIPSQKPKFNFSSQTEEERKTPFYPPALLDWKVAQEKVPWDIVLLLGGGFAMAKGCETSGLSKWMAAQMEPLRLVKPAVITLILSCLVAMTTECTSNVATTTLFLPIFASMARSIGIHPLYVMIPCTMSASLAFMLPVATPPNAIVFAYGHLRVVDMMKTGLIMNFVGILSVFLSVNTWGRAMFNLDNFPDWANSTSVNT
Description: (§1) We determined activity on human NaCT by measuring citrate uptake into HepG2 cells, which endogenously expressed NaCT [37] and for mouse Nact, using HEK293 cells recombinantly expressing mouse Nact (HEK-Nact). We cloned the mouse Slc13a5 cDNA encoding Nact as described previously.
(§2) For radiometric [14C] citrate uptake assays, we used Cytostar-T plates (Perkin Elmer#RPNQ0166, Waltham, MA, USA). For each assay, we seeded 20,000 HepG2 cells per well on collagen coated 384-well Cytostar-T plates or 5000 HEK293 cells per well on ploy-D-lysine coated 384-well Cytostar-T plates. On the following day, we changed culture medium to assay buffer: 120 mM NaCl, 5.4 mM KCl, 0.8 mM MgSO4, 5 mM glucose, 1.8 mM CaCl2, 25 mM Hepes, 25 mM MES, pH 6.5 (human) and pH 7.5 (mouse). We preincubated cells with compounds at 37 °C for 20 min, after which we added [14C] citrate (3 µM for HEK cells and 10 µM for HepG2 cells) and incubated cells for 50 min at 37 °C. After cooling down for 15 min at 4 °C, we measured the counts using a Microbeta2 reader system (Perkin Elmer).

[2] = tested on: fatty acid synthesis in HepG2 cells; test: Fatty acid synthesis assay ([14C] citrate incorporation) in HepG2 cells; assay type: cell-based, human
Description: (§3) We performed the fatty acid synthesis assay in HepG2 cells. We seeded cells into black clear-bottom 96-well plates (Corning 3340 cell plate) 75,000/well and incubated at 37 °C. After 16–24 h, we washed the plates once with 100 µL PBS (+CaCl2 +MgCl2) and added 50 µL assay medium ([…] containing 11 mM glucose, 10 mM HEPES, and 1 nM insulin) per well. Then, we applied test substances in assay medium (10 µL, 5% DMSO) and incubated for 20 min at 37 °C. Thereafter, we added 10 µL assay medium containing [14C] citrate (final concentration 50 µM) and PrestoBlue reagent (1× final concentration; Thermo Fisher Scientific, Waltham, MA, USA) and incubated for 180 min (37 °C, 5% CO2). We measured cell viability (ViewLux instrument, Perkin Elmer). We removed medium by vacuum aspiration and washed cells once with 100 µL PBS (+CaCl2 +MgCl2). We lysed cells with 50 µL lysis buffer (0.1 N NaOH, 0.1 % Triton X-100) and sealed plates with Tape Pads and vortexed. For the saponification reaction, we incubated plates for 16–24 h at 70 °C in a humidified environment. Then, we removed seals and added 200 µL 0.1 N HCl to neutralise the pH. We transferred 150 µL from each into corresponding wells of a 96-well Flash plate (Perkin Elmer) and sealed with TopSeal A (Perkin Elmer). We incubated plates for 4 h at 70 °C and for at least 3 h at room temperature in the dark. We measured [14C] radioactivity (microbeta2, Perkin Elmer). For control samples, we applied 50 mM unlabelled citrate or C75 (Sigma-Aldrich, St. Louis, MO, USA, C5490).

[3] = Viability (PrestoBlue) / cytotoxicity in HepG2 cells; assay type: cell-based; settings: human, parallel to fatty acid synthesis assay
Description: as §3, with “We incubated plates for 4 h at 70 °C and for at least 3 h at room temperature in the dark.” left out, “For control samples, we applied 50 mM unlabelled citrate or C75 (Sigma-Aldrich, St. Louis, MO, USA, C5490).” left out

[4] = biological target: T2, human NaCT (Homo sapiens, UniProt Q86YT5); test: [14C] citrate uptake in HepG2 cells endogenously expressing human NaCT; assay type: cell-based
T2 construct: citrate uptake into HepG2 cells, which endogenously expressed NaCT; host or cells: HepG2
T2 sequence (Q86YT5 whole entry): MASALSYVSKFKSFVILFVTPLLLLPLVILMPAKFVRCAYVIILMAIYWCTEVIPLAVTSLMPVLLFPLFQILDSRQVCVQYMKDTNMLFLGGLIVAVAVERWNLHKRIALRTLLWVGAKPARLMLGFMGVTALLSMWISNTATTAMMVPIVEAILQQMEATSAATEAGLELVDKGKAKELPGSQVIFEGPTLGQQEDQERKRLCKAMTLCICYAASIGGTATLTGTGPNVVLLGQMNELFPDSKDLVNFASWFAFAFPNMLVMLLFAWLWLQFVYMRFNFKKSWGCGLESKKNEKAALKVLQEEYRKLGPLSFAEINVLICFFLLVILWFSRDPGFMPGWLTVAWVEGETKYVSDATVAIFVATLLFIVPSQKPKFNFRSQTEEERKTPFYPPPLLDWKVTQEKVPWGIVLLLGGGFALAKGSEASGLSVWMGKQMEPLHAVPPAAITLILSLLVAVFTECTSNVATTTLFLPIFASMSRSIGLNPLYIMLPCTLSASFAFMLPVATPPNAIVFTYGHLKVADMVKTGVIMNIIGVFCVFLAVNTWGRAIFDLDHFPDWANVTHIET
Description: as §1, §2

O=C(Nc1cc(Cl)cc(C(F)(F)F)c1)OCCC(F)(F)F [ETG-5773]
IC50 [1]: 180 nM
IC50 difference in fatty acid synthesis versus PF-06649298 ([2]; ETG-5773 compared to PF-06649298, HepG2): around 40 fold
IC50 ([2]; Homo sapiens, HepG2, [14C] citrate incorporation, read-out: IC50 fatty acid synthesis, HepG2): 1000 nM
IC50 at 180 min [3]: > 50000 nM
In vitro activity relative to PF-06649298 ([4]; ETG-5773 more active than PF-06649298): more than 100 fold
IC50 ([4]; HepG2, human NaCT, citrate substrate): 160 nM
